Values quoted from earlier work in US7718595B2, “Light duty liquid cleaning compositions and methods of manufacture and use thereof comprising organic acids” (priority 2008, dated 2010).

What was measured:
[1] = list category
[2] = not given; remark: listed apart in the source

| Compound | EPA Inert List [1] | solubility in water | pKa [2] |
| --- | --- | --- | --- |
| sodium xylene sulfonate [SXS] | 3 |  |  |
| O=C([O-])CN(CCN(CC(=O)[O-])CC(=O)[O-])CC(=O)[O-].[Na+].[Na+].[Na+].[Na+] [Na4EDTA] | 4B |  |  |
| CCO [Ethanol] | 4B |  |  |
| O=P(O)(O)OP(=O)(O)OP(=O)(O)O [Sodium tripolyphosphate] |  | about 14 wt-% |  |
| O=S(=O)([O-])[O-].[Mg+2] [Mg2SO4] | 4A |  |  |
| CCCCCCCCCCCC(=O)NCCC[N+](C)(C)CC(=O)[O-] [Laurylamidopropyl Betaine] | 3 |  |  |
| CC(O)C(=O)O (centres unmarked) [Lactic acid] | 4B |  | about 3.8 |
